The record followed here is PMC5608804, “Stepwise Evolution Improves Identification of Diverse Peptides Binding to a Protein Target” (Scientific Reports, 2017).

In this experiment the target is T1, streptavidin (Streptomyces avidinii, UniProt P22629).
T1 construct: purchased GE Healthcare (Little Chalfont, UK)
Nature of the experiment: Cy5-streptavidin binding on HotSpot discovery array, 5-mer L-peptide library. The note with it: for S/B: signal to background ratio. From the text: To identify hotspot sequences that bind to streptavidin (SA), we bound Cy5-SA to an array library of 2,476,099 5-mer L-peptides synthesized with 19 of 20 natural amino acids (excluding cysteine). The fluorescence signal intensity was aggregated across three independently synthesized arrays; then the 2,047 peptides with a signal-to-background ratio (S/B) >4 were selected. The data was further filtered to select 1,100 peptides for which signal intensities were highly correlated on all 3 arrays (the percentage of mean deviation to mean was <10%, see Supplementary dataset Table 2A). Most selected sequences (1,019 of 1,100) contained HP, PQ, or PM sequences: their presence would be expected in the well-known HPQ and HPM streptavidin binders[13]–[18].
The comprehensive peptide library included 2,476,099 5-mer peptides synthesized in a single copy with 19 of 20 L- or D-amino acids (excluding cysteine). Libraries were flanked on both N- and C-termini by linkers of 1 or 3 amino acids using a 3:1 glycine-serine mixture.
Cy5™-streptavidin (Cy5-SA) was purchased from GE Healthcare (Little Chalfont, UK). Freshly deprotected arrays were used in each experiment. Streptavidin binding to all arrays was performed with 0.5 µg/ml Cy5-SA either in binding buffer containing 10 mM Tris-HCl (pH 7.4), 1% alkali-soluble casein (EMD Millipore), 0.05% Tween-20 or in 10 mM Tris-HCl (pH 7.4), 4% BSA (Roche, Basel, Switzerland), 0.05% Tween-20 in a 30 mL PAP Jar container (Evergreen Scientific, Vernon, CA) overnight at 4° C. After incubation, arrays were washed in 20 mM Tris-HCl (pH 7.8), 0.2 M NaCl, 1% SDS or 1X TBS (pH 7.4) for 30 sec followed by a 1 min wash in water, and then dried by spinning in a microcentrifuge equipped with an array holder.
Cy5 fluorescence intensity of the arrays was measured with an MS200 scanner (Roche NimbleGen, Madison, WI) at resolution 2 µm, wavelength 635 nm, gain 25%, and laser intensity 100%. Cy5 signal intensities were extracted using Image Extraction Software (Roche NimbleGen). Data pre-processing, normalization, and statistical tests were performed using the language R. Data visualization and analysis was performed with the Spotfire 6.5.0 (Tibco, Boston, MA) software platform. Distance analysis and principle component analysis of distance matrices were performed with the R package PEPLIB[19].

The mark [1] stands for this setting: 5-mer L-peptide library array, Cy5-streptavidin, from average of three arrays.
Where [2] appears, read: 5-mer L-peptide library array, Cy5-streptavidin, from the average of three arrays.
The mark [3] stands for this setting: 5-mer L-peptide library array, Cy5-streptavidin.
The mark [4] stands for this setting: 5-mer L-peptide library, from the average of three arrays.
Where [5] appears, read: average of three arrays, L-peptide 5-mer library.

T1 sequence (P22629 25-183): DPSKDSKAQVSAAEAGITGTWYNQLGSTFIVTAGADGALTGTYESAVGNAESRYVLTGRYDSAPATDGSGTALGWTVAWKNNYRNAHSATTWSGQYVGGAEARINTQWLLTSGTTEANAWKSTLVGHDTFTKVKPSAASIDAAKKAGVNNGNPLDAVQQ

For the substance AAHPM, the “S/B (signal to background ratio)” value under setting [1] stood at 35.3.
The same measure, in the same setting: the value for AAHPQ was 123.9.
Consider ADHPQ, for which, under setting [2], the “S/B (signal to background ratio)” value worked out at 69.7.
As to AFHPQ, the “S/B (signal to background ratio)” value under setting [1] was 177.5.
For the substance AGHPQ, the “S/B (signal to background ratio)” value under setting [1] came out at 137.1.
The same measure, in the same setting: the value for AHHPQ was 131.6.
As to AHPMA, the “S/B (signal to background ratio)” value under setting [2] was found to be 60.9.
With AHPMF, the S/B under setting [3] amounted to 10.8.
Regarding AHPMS, the “S/B (signal to background ratio)” value under setting [1] came out at 27.6.
AHPMY: under setting [3], the S/B is 7.7.
On the same count and under the same terms, the value for AHPQD was 10.2.
With AHPQG, the “S/B (signal to background ratio)” value under setting [1] worked out at 120.5.
AHPQI: under setting [3], the S/B came to 15.7.
On the same count and under the same terms, the result for AHPQK reads 12.1.
For the substance AHPQM, the “S/B (signal to background ratio)” value under setting [1] is 32.6.
For the substance AHPQP, the “S/B (signal to background ratio)” value under setting [4] was 4.1.
Consider AHPQQ, for which the “S/B (signal to background ratio)” value under setting [1] is recorded as 34.0.
With AHPQS, the “S/B (signal to background ratio)” value under setting [2] is 79.9.
With AHPQT, the S/B under setting [3] is 18.8.
Still for that read-out and setting: the result for AKHPM reads 18.3.
For ALHPM, under setting [1], the “S/B (signal to background ratio)” value came out at 39.7.
Same read-out and setting: the value for ALHPQ was 123.6.
The same measure, in the same setting: the value for AMHPM was 42.8.
For AMHPQ, under setting [1], the “S/B (signal to background ratio)” value is listed as 124.0.
As for ANHPM, the “S/B (signal to background ratio)” value under setting [1] stood at 47.0.
For ANHPQ, under setting [2], the “S/B (signal to background ratio)” value amounted to 115.8.
Take APHPM: the “S/B (signal to background ratio)” value under setting [1] was 38.6.
Same read-out and setting: the value for APHPQ was 142.8; that for ASHPQ was 130.1; that for ATHPQ was 135.7.
Still for that read-out and setting: the result for AVHPM reads 23.8.
On the same count and under the same terms, the value for AWHPQ was 172.2.
For AYHPM, under setting [2], the “S/B (signal to background ratio)” value worked out at 66.7.
Consider DAHPQ, for which, under setting [2], the “S/B (signal to background ratio)” value came out at 62.6.
Turning to DDHPM, under setting [3], the S/B is given as 11.6.
On to DDHPQ, for which the “S/B (signal to background ratio)” value under setting [1] stood at 31.9.
Consider DEHPQ, for which the “S/B (signal to background ratio)” value under setting [1] worked out at 26.0.
Turning to DFHPM, under setting [1], the “S/B (signal to background ratio)” value worked out at 36.4.
Consider DFHPQ, for which the “S/B (signal to background ratio)” value under setting [2] came out at 75.2.
On the same count and under the same terms, the value for DGHPQ was 62.6.
Consider DHHPM, for which the “S/B (signal to background ratio)” value under setting [1] worked out at 32.9.
The same measure, in the same setting: the value for DHPMG was 29.8.
Regarding DHPMK, the S/B under setting [3] was found to be 13.3.
On to DHPMM, for which the S/B under setting [3] amounted to 5.6.
Same read-out and setting: the value for DHPMN was 12.4; that for DHPMY was 6.4.
For DHPQA, under setting [2], the “S/B (signal to background ratio)” value amounted to 83.3.
DHPQG: the “S/B (signal to background ratio)” value under setting [2] was determined as 77.3.
As for DHPQH, the “S/B (signal to background ratio)” value under setting [1] is given as 31.2.
Consider DHPQK, for which the “S/B (signal to background ratio)” value under setting [1] is reported as 32.1.
In the case of DHPQN, the “S/B (signal to background ratio)” value under setting [2] was found to be 72.7.
With DHPQS, under setting [1], the “S/B (signal to background ratio)” value turned out to be 49.1.
In the case of DHPQT, the S/B under setting [3] is reported as 8.9.
On the same count and under the same terms, the result for DKHPM reads 18.2.
For DLHPQ, under setting [2], the “S/B (signal to background ratio)” value came out at 60.4.
Consider DMHPQ, for which, under setting [2], the “S/B (signal to background ratio)” value is 69.3.
Regarding DNHPQ, the “S/B (signal to background ratio)” value under setting [2] amounted to 74.6.
On to “DPFGW [L-amino acid 5-mer array peptide]”, for which the “S/B (signal to background ratio)” value under setting [5] was 10.1. Moreover, under setting [3], the S/B is listed as 10.1.
In the case of DPHPQ, under setting [2], the “S/B (signal to background ratio)” value is 88.5.
DRHPQ: the “S/B (signal to background ratio)” value under setting [2] is given as 87.4.
Consider DSHPM, for which, under setting [3], the S/B is on record as 17.9.
In the case of DSHPQ, the “S/B (signal to background ratio)” value under setting [2] was found to be 74.0.
Consider DTHPQ, for which the “S/B (signal to background ratio)” value under setting [2] is recorded as 68.3.
On to “DWDKV [L-amino acid 5-mer array peptide]”, for which, under setting [5], the “S/B (signal to background ratio)” value amounted to 5.7. The S/B under setting [3] is listed as 5.7.
In the case of “DWDSW [L-amino acid 5-mer array peptide]”, the “S/B (signal to background ratio)” value came out at 4.9 under setting [4] and 4.9 under setting [5].
DYHPM: the “S/B (signal to background ratio)” value under setting [1] is reported as 28.4.
On to DYHPQ, for which the “S/B (signal to background ratio)” value under setting [2] came out at 103.8.
Regarding EAHPM, under setting [3], the S/B amounted to 16.5.
For EDHPQ, the “S/B (signal to background ratio)” value under setting [1] came to 34.6.
On the same count and under the same terms, the value for EEHPQ was 27.3.
In the case of EFHPQ, the “S/B (signal to background ratio)” value under setting [2] amounted to 100.0.
On to EGHPM, for which the “S/B (signal to background ratio)” value under setting [1] is recorded as 22.4.
Still for that read-out and setting: the value for EHHPM was 31.0.
Regarding EHHPQ, the “S/B (signal to background ratio)” value under setting [2] was 87.5.
As for EHPMY, the “S/B (signal to background ratio)” value under setting [4] was determined as 4.5.
With EHPQA, the “S/B (signal to background ratio)” value under setting [2] turned out to be 70.0.
Take EHPQF: the “S/B (signal to background ratio)” value under setting [1] amounted to 53.2.
Turning to EHPQG, the “S/B (signal to background ratio)” value under setting [2] worked out at 64.3.
As for EHPQI, the S/B under setting [3] is given as 6.3.
Regarding EHPQN, under setting [2], the “S/B (signal to background ratio)” value is 71.2.
With EHPQQ, the S/B under setting [3] stood at 16.2.
As for EHPQR, the “S/B (signal to background ratio)” value under setting [1] was found to be 45.0.
Consider EHPQS, for which the “S/B (signal to background ratio)” value under setting [1] is given as 36.4.
For EHPQV, under setting [1], the “S/B (signal to background ratio)” value stood at 41.0.
Turning to EHPQY, the “S/B (signal to background ratio)” value under setting [1] came to 22.3.
Regarding EIHPM, under setting [3], the S/B was determined as 9.9.
Turning to ELHPQ, the “S/B (signal to background ratio)” value under setting [1] came out at 56.4.
Still for that read-out and setting: the value for EMHPQ was 44.9.
As for ENHPM, the “S/B (signal to background ratio)” value under setting [1] is 23.5.
As for ENHPQ, under setting [2], the “S/B (signal to background ratio)” value came to 78.3.
On to EPHPM, for which the “S/B (signal to background ratio)” value under setting [1] is reported as 23.1.
On the same count and under the same terms, the result for EQHPQ reads 43.8; that for ERHPQ, 134.2.
With ESHPM, the S/B under setting [3] came to 17.2.
As to ESHPQ, the “S/B (signal to background ratio)” value under setting [2] amounted to 64.3.
Regarding ETHPQ, under setting [1], the “S/B (signal to background ratio)” value is 49.0.
For EVHPM, under setting [4], the “S/B (signal to background ratio)” value stood at 5.0.
As to EVHPQ, under setting [1], the “S/B (signal to background ratio)” value is listed as 44.3.
For EWHPM, the “S/B (signal to background ratio)” value under setting [1] is given as 38.1.
As to EYHPQ, the “S/B (signal to background ratio)” value under setting [2] was 96.9.
Same read-out and setting: the result for FAHPM reads 90.2.
Turning to FAHPQ, the “S/B (signal to background ratio)” value under setting [1] was determined as 186.9.
In the case of “FDAWL [L-amino acid 5-mer array peptide]”, the “S/B (signal to background ratio)” value under setting [5] is 11.9. For the same substance, under setting [3], the S/B stood at 11.9.
In the case of “FDDFL [L-amino acid 5-mer array peptide]”, the “S/B (signal to background ratio)” value is, setting by setting: under setting [4], 5.0; under setting [5], 5.0.
“FDEWL [L-amino acid 5-mer array peptide]”: the “S/B (signal to background ratio)” value was determined as 4.8 under setting [4] and 4.8 under setting [5].
Consider “FDGWL [L-amino acid 5-mer array peptide]”, for which the “S/B (signal to background ratio)” value under setting [5] was determined as 6.7. The S/B under setting [3] is listed as 6.7.
Turning to FDHPQ, under setting [1], the “S/B (signal to background ratio)” value was determined as 121.8.
As to “FDKWL [L-amino acid 5-mer array peptide]”, under setting [5], the “S/B (signal to background ratio)” value is on record as 15.9. In addition, the S/B under setting [3] came out at 15.9.
Turning to “FDNWL [L-amino acid 5-mer array peptide]”, the “S/B (signal to background ratio)” value under setting [5] came to 9.9. Also, under setting [3], the S/B was found to be 9.9.
For the substance “FDSWL [L-amino acid 5-mer array peptide]”, the “S/B (signal to background ratio)” value under setting [5] was 8.0. In addition, the S/B under setting [3] was found to be 8.0.
